Two compounds from US6369109B1, “Betulinic acid and derivatives thereof useful for the treatment of neuroectodermal tumor” (Deutsches Krebsforschungszentrum Stiftung des Offentlichen …, priority 1998, dated 2002) can be followed below.

The structures appear in SMILES notation.

In test [1] the test system is mitochondria isolated from SHEP cells. Put plainly: Cytochrome c release from isolated mitochondria (Western blot). The format is biochemical, human. The following applies: bongkrekic acid; FIG. 10C. How it is done:
Cells were lysed for 30 min at 4° C. in PBS with 0.5% Triton X (Serva, Heidelberg, Germany) and 1 mM PMSF (Sigma, Deisenhofen, Germany) followed by high-speed centrifugation. Membrane proteins were eluted in buffer containing 0.1 M glycine, pH 3.0 and 1.5 M Tris, pH 8.8. Protein concentration was assayed using bicinchoninic acid (Pierce, Rockford, Ill.). 40 μg protein per lane was separated by 12% or 15% SDS-PAGE and electro blotted onto nitrocellulose (Amersharn, Braunschweig, Germany). Equal protein loading was controlled by Ponceau red staining of membranes. After blocking for 1 h in PBS supplemented with 2% BSA (Sigma) and 0.1% Tween 20 (Sigma), immunodetection of caspases-3 and -8, PARP, and cytochrome c protein was done using mouse anti-caspase-8 mAb C15 (Scaffidi et al., 1997, J. Biol. Chem. 272, 26953-26958, 1:5 dilution of hybridoma supernatant), mouse anti-caspase-3-specific mAb (1:1000, Transduction Laboratories, Lexington, Ky.), rabbit anti-PARP polyclonal antibody (1:10000, Enzyme Systems Products) or mouse anti-cytochrome c mAb (1:5000, PharMingen, San Diego, Calif.). Goat anti-mouse IgG or goat anti-rabbit IgG (1:5000, Santa Cruz Biotechnology) followed by ECL (Amersham) was used for detection.
Mitochondria isolated from SHEP cells transfected with bcl-2, Bcl-XL or a neontycin resistance vector only (Neo) were treated with 10 μg/ml betulinic acid. […]
(In general: In western blotting, separated proteins are transferred to a membrane and probed.)

The subject of test [2] is CD95-L mRNA in SH-EP neuroblastoma cells. The experiment in a line: CD95-L mRNA expression by RT-PCR. The format is cell-based, human. The following applies: 5 and 10 μg/ml betulinic acid; 0.5 μg/ml doxorubicin 24 h; FIG. 3A. How it is done: Total RNA was prepared using the Qiagen total RNA kit (Qiagen, Hilden, Germany). RNA was converted to cDNA by reverse transcription and amplified for 38 cycles by PCR in a thermocycler (Stratagene, Heidelberg, Germany) using the Gene Amplification RNA-PCR kit (Perkin-Elmer, Branchburg, N.J.) following the manufacturer's instructions. Primers used for amplification of the CD95-L fragment are according to the sequence of human CD95-L (Suda et al., 1995, Cell 75:1169-1178; Herr et al., 1996, Cell Death Diff., 5:299-305). Expression of β-actin (MWG-Biotech, Ebersberg, Germany) was used as an internal standard for RNA integrity and equal gel loading. PCR products were run at 60 V for 2 h on a 1.5% agarose gel stained with ethidium bromide and visualized by UV illumination.
SH-EP neuroblastoma cells were incubated with 5 and 10 μg/ml betulinic acid for the indicated times or with 0.5 μg/ml doxorubicin for 24 h. CD95-L mRNA expression was determined by RT-PCR. Expression of μ-actin was used to control RNA integrity and equal gel loading.

With `CO[C@H](C/C=C\C=C\CC/C=C/C[C@H](C)/C=C/C(=C\C(=O)O)CC(=O)O)/C(C)=C\C=C(/C)C(=O)O` [bongkrekic acid], the “effect of inhibitor on betulinic acid-driven release of cytochrome c” value in test [1] was “blocked”.
`COc1cccc2c1C(=O)c1c(O)c3c(c(O)c1C2=O)C[C@@](O)(C(=O)CO)C[C@@H]3O[C@H]1C[C@H](N)[C@H](O)[C@H](C)O1` [doxorubicin]: the “CD95-L mRNA induction” value in test [2] is reported as “strongly up-regulated CD95-L mRNA”.
